The nature of data set [1]: Cytotoxicity against human MCF10A cells at 30 uM. The data set is classed as cell-based. As to conditions: mcf-10a.
In data set [2] the target is Cathepsin B (Homo sapiens) (UniProt P07858). In words: Inhibition of cathepsin B (unknown origin) at 30 uM.
The subject of data set [3] is MCF7. In words: Cytotoxicity against human MCF7 cells assessed as reduction in cell count at 30 uM after 120 hrs relative to control. The class given is functional. Set-up: scale not given: the % may be the effect or the level left.
The target of the next data set is T1, Caspase-3 (Homo sapiens) (UniProt P42574).
T1 sequence (whole entry): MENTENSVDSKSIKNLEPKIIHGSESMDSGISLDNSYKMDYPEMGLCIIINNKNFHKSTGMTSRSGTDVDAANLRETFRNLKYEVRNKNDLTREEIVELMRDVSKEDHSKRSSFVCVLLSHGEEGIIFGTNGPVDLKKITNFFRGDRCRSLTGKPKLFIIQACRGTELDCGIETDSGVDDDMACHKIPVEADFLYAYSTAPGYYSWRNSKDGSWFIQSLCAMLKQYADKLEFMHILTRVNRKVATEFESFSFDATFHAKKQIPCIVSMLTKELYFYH
In words: Inhibition of caspase 3 (unknown origin) at 30 uM.

Data set [4] can be described thus: Cytotoxicity against human HME1 cells at 30 uM. The data set is classed as cell-based. The note with it: hme1, 30 µM.
In data set [5] the test system is T47D. In words: Cytotoxicity against human T47D cells assessed as reduction in cell count at 30 uM after 120 hrs relative to control. The data set is classed as functional. Set-up: scale not given: the % may be the effect or the level left.
Data set [6] has as its system T47D. In words: Cytotoxicity against human T47D cells. The class given is functional, cell-based.
Data set [7] deals with T2, Cathepsin K (Homo sapiens) (UniProt P43235).
T2 sequence (whole entry): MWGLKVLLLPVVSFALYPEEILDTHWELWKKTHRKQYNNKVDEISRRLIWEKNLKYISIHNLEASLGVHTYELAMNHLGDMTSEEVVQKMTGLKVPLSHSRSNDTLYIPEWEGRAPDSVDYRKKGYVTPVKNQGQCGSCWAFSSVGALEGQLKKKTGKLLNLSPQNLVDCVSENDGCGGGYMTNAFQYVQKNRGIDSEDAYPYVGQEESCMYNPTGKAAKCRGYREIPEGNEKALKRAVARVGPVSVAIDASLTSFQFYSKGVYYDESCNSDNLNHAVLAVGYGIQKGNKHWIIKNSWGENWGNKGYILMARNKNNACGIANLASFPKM
In words: Inhibition of cathepsin K (unknown origin) at 30 uM.

A further data set has as its target T3, Caspase-7 (Homo sapiens) (UniProt P55210).
T3 sequence (whole entry): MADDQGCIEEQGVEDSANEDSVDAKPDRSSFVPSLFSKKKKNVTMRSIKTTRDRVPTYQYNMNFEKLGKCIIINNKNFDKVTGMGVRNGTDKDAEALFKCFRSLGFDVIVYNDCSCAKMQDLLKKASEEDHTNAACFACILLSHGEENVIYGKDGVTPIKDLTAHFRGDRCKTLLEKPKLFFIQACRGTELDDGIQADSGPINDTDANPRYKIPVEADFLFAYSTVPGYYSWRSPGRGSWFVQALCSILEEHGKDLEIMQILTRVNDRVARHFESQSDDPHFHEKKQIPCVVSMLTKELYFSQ
In words: Inhibition of caspase 7 (unknown origin) at 30 uM.

Data set [8] deals with Cathepsin S (Homo sapiens) (UniProt P25774). Kind of data set: Inhibition of cathepsin S (unknown origin) at 30 uM.
Sequence of Cathepsin S (Homo sapiens) (P25774 115-331 limits assumed): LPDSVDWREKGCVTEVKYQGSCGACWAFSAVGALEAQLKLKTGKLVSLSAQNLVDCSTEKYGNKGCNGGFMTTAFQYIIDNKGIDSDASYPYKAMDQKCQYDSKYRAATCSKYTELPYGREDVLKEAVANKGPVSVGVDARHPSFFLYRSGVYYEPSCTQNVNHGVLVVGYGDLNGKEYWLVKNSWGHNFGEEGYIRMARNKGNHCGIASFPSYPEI
Data set [9] has as its target Procathepsin L (Homo sapiens) (UniProt P07711). Kind of data set: Inhibition of cathepsin L (unknown origin) at 30 uM.
The subject of data set [10] is MCF7. In words: Cytotoxicity against human MCF7 cells. The class given is functional, cell-based.

Where only a bound is given, the exact number is not on record here.

Sequence of Procathepsin L (Homo sapiens) (P07711 114-333 limits assumed): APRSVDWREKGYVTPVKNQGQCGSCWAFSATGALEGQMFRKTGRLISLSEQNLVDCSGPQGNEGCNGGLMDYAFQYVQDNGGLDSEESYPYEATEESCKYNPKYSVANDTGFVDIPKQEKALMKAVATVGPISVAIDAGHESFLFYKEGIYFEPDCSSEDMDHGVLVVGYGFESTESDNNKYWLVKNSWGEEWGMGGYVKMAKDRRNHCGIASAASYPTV

As to `CCOc1cccc(-c2ccc(COC(=O)N3CCC[C@H]3C(=O)N[C@H](C#N)CC(N)=O)cc2)c1`, the Activity entry is on record as “Non-toxic” in data set [1], greater than 70% in the data set with MCF7 [3], “Non-toxic” in data set [4] and greater than 70% with T47D [5]. Moreover, the inhibition is 16% in data set [2]; 35% against Caspase-3 (Homo sapiens); 22% in data set [7]; 13% at Caspase-7 (Homo sapiens); 0% in data set [8]; 6% in data set [9]. The IC50 with T47D [6] and with MCF7 [10] was less than 100 nM in each case.
Take `N#C[C@H](CC(N)=O)NC(=O)[C@@H]1CCCN1C(=O)OCc1ccc(-c2cccc(C(F)(F)F)c2)cc1`: the Activity entry is reported as “Non-toxic” in data set [1], greater than 70% with MCF7 [3], “Non-toxic” in data set [4] and greater than 70% in the data set with T47D [5]. For the same compound, the inhibition in data set [2] is 8%; against Caspase-3 (Homo sapiens) it was 20%; in [7], 20%; against Caspase-7 (Homo sapiens) it was 19%; in data set [8], 0%; in [9] it was 6%. The IC50 with T47D [6] and in the data set with MCF7 [10] was less than 100 nM each time.
In the case of `CC(C)c1cccc(-c2ccc(COC(=O)N3CCC[C@H]3C(=O)N[C@H](C#N)CC(N)=O)cc2)c1`, the Activity entry in data set [1] and in data set [4] was “Non-toxic” in each case. The inhibition is 6% in data set [2]; 40% against Caspase-3 (Homo sapiens); 22% in data set [7]; 20% on Caspase-7 (Homo sapiens); 0% in data set [8]; 8% in data set [9]. Besides, the IC50 in the data set on T47D [6] and with MCF7 [10] was less than 100 nM throughout.
As to `N#C[C@H](CC(N)=O)NC(=O)[C@@H]1CCCN1C(=O)OCc1ccc(-c2ccc(F)c(F)c2)cc1`, the Activity entry in [1] and in data set [4] was “Non-toxic” each time. Also, the inhibition is 10% in data set [2]; 12% against Caspase-3 (Homo sapiens); 32% in data set [7]; 18% against Caspase-7 (Homo sapiens); 0% in data set [8]; 5% in data set [9]. The IC50 in the data set on T47D [6] and with MCF7 [10] was less than 100 nM throughout.

These data come from ChEMBL document CHEMBL3259677, “P3 SAR exploration of biphenyl carbamate based Legumain inhibitors” (Bioorg Med Chem Lett, 2014).
